Laboratory results reported in BigSolDB 2.1.

COC(=O)c1ccnc(N)c1
solubility (mole fraction) (in DMF, 278.15 K): 0.00726
solubility (mole fraction) (in DMF, 283.15 K): 0.0087
solubility (mole fraction) (in DMF, 288.15 K): 0.0105
solubility (mole fraction) (in DMF, 293.15 K): 0.0126
solubility (mole fraction) (in DMF, 298.15 K): 0.0152
solubility (mole fraction) (in DMF, 303.15 K): 0.0183
solubility (mole fraction) (in DMF, 308.15 K): 0.0216
solubility (mole fraction) (in DMF, 313.15 K): 0.0249
solubility (mole fraction) (in DMF, 318.15 K): 0.0292
solubility (mole fraction) (in DMF, 323.15 K): 0.0339
solubility (mole fraction) (in acetonitrile, 278.15 K): 0.00539
solubility (mole fraction) (in acetonitrile, 283.15 K): 0.00665
solubility (mole fraction) (in acetonitrile, 288.15 K): 0.00838
solubility (mole fraction) (in acetonitrile, 293.15 K): 0.0104
solubility (mole fraction) (in acetonitrile, 298.15 K): 0.0127
solubility (mole fraction) (in acetonitrile, 303.15 K): 0.015
solubility (mole fraction) (in acetonitrile, 308.15 K): 0.0177
solubility (mole fraction) (in acetonitrile, 313.15 K): 0.0206
solubility (mole fraction) (in acetonitrile, 318.15 K): 0.0241
solubility (mole fraction) (in acetonitrile, 323.15 K): 0.0277
solubility (mole fraction) (in ethanol, 278.15 K): 0.00321
solubility (mole fraction) (in ethanol, 283.15 K): 0.00385
solubility (mole fraction) (in ethanol, 288.15 K): 0.0047
solubility (mole fraction) (in ethanol, 293.15 K): 0.00577
solubility (mole fraction) (in ethanol, 298.15 K): 0.00694
solubility (mole fraction) (in ethanol, 303.15 K): 0.00821
solubility (mole fraction) (in ethanol, 308.15 K): 0.00976
solubility (mole fraction) (in ethanol, 313.15 K): 0.0114
solubility (mole fraction) (in ethanol, 318.15 K): 0.0132
solubility (mole fraction) (in ethanol, 323.15 K): 0.0154
solubility (mole fraction) (in isopropanol, 278.15 K): 0.00385
solubility (mole fraction) (in isopropanol, 283.15 K): 0.0048
solubility (mole fraction) (in isopropanol, 288.15 K): 0.00601
solubility (mole fraction) (in isopropanol, 293.15 K): 0.00728
solubility (mole fraction) (in isopropanol, 298.15 K): 0.00889
solubility (mole fraction) (in isopropanol, 303.15 K): 0.0104
solubility (mole fraction) (in isopropanol, 308.15 K): 0.0122
solubility (mole fraction) (in isopropanol, 313.15 K): 0.0141
solubility (mole fraction) (in isopropanol, 318.15 K): 0.0163
solubility (mole fraction) (in isopropanol, 323.15 K): 0.019
solubility (mole fraction) (in methanol, 278.15 K): 0.00173
solubility (mole fraction) (in methanol, 283.15 K): 0.0021
solubility (mole fraction) (in methanol, 288.15 K): 0.00255
solubility (mole fraction) (in methanol, 293.15 K): 0.00312
solubility (mole fraction) (in methanol, 298.15 K): 0.00379
solubility (mole fraction) (in methanol, 303.15 K): 0.00453
solubility (mole fraction) (in methanol, 308.15 K): 0.00557
solubility (mole fraction) (in methanol, 313.15 K): 0.00665
solubility (mole fraction) (in methanol, 318.15 K): 0.00798
solubility (mole fraction) (in methanol, 323.15 K): 0.00946
solubility (mole fraction) (in n-propanol, 278.15 K): 0.00422
solubility (mole fraction) (in n-propanol, 283.15 K): 0.00528
solubility (mole fraction) (in n-propanol, 288.15 K): 0.00655
solubility (mole fraction) (in n-propanol, 293.15 K): 0.00813
solubility (mole fraction) (in n-propanol, 298.15 K): 0.00977
solubility (mole fraction) (in n-propanol, 303.15 K): 0.0117
solubility (mole fraction) (in n-propanol, 308.15 K): 0.0137
solubility (mole fraction) (in n-propanol, 313.15 K): 0.0163
solubility (mole fraction) (in n-propanol, 318.15 K): 0.019
solubility (mole fraction) (in n-propanol, 323.15 K): 0.0217
solubility (mole fraction) (in toluene, 278.15 K): 0.00824
solubility (mole fraction) (in toluene, 283.15 K): 0.00987
solubility (mole fraction) (in toluene, 288.15 K): 0.0122
solubility (mole fraction) (in toluene, 293.15 K): 0.0147
solubility (mole fraction) (in toluene, 298.15 K): 0.0177
solubility (mole fraction) (in toluene, 303.15 K): 0.0208
solubility (mole fraction) (in toluene, 308.15 K): 0.0243
solubility (mole fraction) (in toluene, 313.15 K): 0.0282
solubility (mole fraction) (in toluene, 318.15 K): 0.0327
solubility (mole fraction) (in toluene, 323.15 K): 0.0377
solubility (mole fraction) (in water, 278.15 K): 0.000935
solubility (mole fraction) (in water, 283.15 K): 0.00117
solubility (mole fraction) (in water, 288.15 K): 0.00142
solubility (mole fraction) (in water, 293.15 K): 0.00178
solubility (mole fraction) (in water, 298.15 K): 0.00217
solubility (mole fraction) (in water, 303.15 K): 0.00258
solubility (mole fraction) (in water, 308.15 K): 0.00302
solubility (mole fraction) (in water, 313.15 K): 0.00356
solubility (mole fraction) (in water, 318.15 K): 0.00416
solubility (mole fraction) (in water, 323.15 K): 0.00489
